Results taken from patent US7572436B1, “Thionin as an antineoplastic and immunostimulant” (priority 2000, dated 2009).
Where no end group is shown, it is not given here.

How the values were obtained:
[1] = test system: T cells in the spleen and thymus; assay: FITC Thy-1.2 staining of T cells after ip injection; assay type: in vivo, Swiss Webster mice
Description: Using sterile technique the spleen or thymus was removed from a mouse euthanized by CO2 gas. The organ was teased apart to collect splenocytes or thymocytes, respectively. The cells were treated with red cell lysing buffer at 37° C. to remove the erthyrocytes, then washed several times in culture medium, RPMI-10. The cells were counted using Trypan Blue exclusion to determine viable cell yield (as described above) and resuspended in PBS/1% BSA/0.1% sodium azide buffer (pH 7.2) at 2×10^7 cells/ml.
To a microfuge tube, in ice, was added 100 μl of cell suspension (2×10^7 cells/ml). Five microliters of FcγR Block (CD16/CD32 Block; Pharmingen, San Diego, Calif.), diluted to 50 μg/ml with PBS/BSA/Azide Buffer, is added. The tube was gently mixed and kept on ice for three minutes.
One hundred microliters of Thy 1.2 FITC stain (10 μg/ml) were added and the tube was gently vortexed. Cells were stained for 30 minutes at 4° C., followed by centrifugation in a microfuge centrifuge at 4500 rpm for three minutes. The cells were washed twice with 500 μl ice-cold PBS/BSA/Azide buffer, and resuspended each time by gentle vortexing.
One hundred microliters of 1% paraformaldehyde (in PBS) were added to the cell pellet, and the cells were thoroughly mixed, then incubated 20 minutes at 4° C. The cells were then washed once with 500 μl of 2.19% glycine and resuspended in 500 μl of sterile PBS.
Fifteen microliters of the stained cell suspension were placed as two non-overlapping spots on a 1-mm thick glass slide that had been cleaned with ethanol. The cell droplets were allowed to dry without spreading or using a cover slip. The slides were air-dried in a hood, covered with aluminum foil to exclude light (in order to prevent photobleaching). If the slide was pre-cleaned and dried correctly, the droplets will naturally dry to a diameter of about 10 mm. The slides should be read within one week.
Cells were evaluated using a Zeiss oil-immersion microscope (UV-lamp, filter #47; Carl Zeiss Inc., Thornwood, N.Y.). Non-stained cells appeared medium-brown in color on a dark background. […] Partially stained cells that have a partial ring were counted separately. The percentage of non-stained, partially stained, and completely stained cells was determined. At least 200 cells per slide were scored, but usually about 300-400 cells were counted.
Data set out in Table 4, and discussed above, indicate that PT stimulates mitogen activity with murine splenocytes in vitro. This could come about through the action of activated macrophages on T cells by IL-1 production and antigen presentation to the T cells. […] T cells were detected with fluorescent-labeled (FITC) Thy 1.2 monoclonal antibody, which is a general antibody for all T cells. The cells were counted manually with a fluorescent microscope, and the data are divided into cells with no stain (no fluorescence), cells with partial staining (medium fluorescence), and cells with intense staining (high fluorescence). The mice were injected with the indicated amount of PT intraperitoneally and the animals sacrificed after three days to obtain the spleen and thymus.

YAC-1 target cells = assay: Natural killer assay (^51Cr release), murine splenocytes against YAC-1; assay type: cell-based; conditions: for % Cell Lysis: Balb/C splenocytes, ^51Cr loaded YAC-1 cells
Description: Murine spleen cell and human peripheral blood lymphocytes (PBLs) were obtained as described in the procedure for the Mitogen Assay.
Drugs and control substances were added, using sterile techniques, to the wells of a 24-well plate, using RPMI-10 as the culture medium. Spleen cells or human lymphocytes were added last to the wells at a concentration of 4×10^6 cells per 2 ml total volume in the well. Splenocyte incubation was usually three days (65-70 hours) while human lymphocyte stimulation may be extended to four to five days. The cells were incubated at 37° C. in a humidified 5% CO2 incubator.
On the day of harvest, 10^7 target cells were labeled with 150 μCi of ^51Cr (sodium chromate). Target cells used were YAC-I (murine Lymphoma) or K562 (human chronic myelogenous leukemia).
The cells were adjusted to 2×10^7 cells/ml in RPMI-10 and 150 μCi of ^51Cr were added to 500 μl of the target cell suspension (10^7 total cells) and incubated in a 5% CO2 humidified incubator for 1.5 hours. The labeled cells were washed three times with 10 ml RPMI-10 and then resuspended in 5 ml (2×10^6 cells/ml). Supernatants from washings of labeled cells were isolated and contained under lead shielding.
The stimulated effector cells were thoroughly mixed and removed from individual wells of the 24-well plate and transferred to tubes for centrifugation at 200×g. The supernatants were decanted and the pelleted cells washed once with 2 ml RPMI-10. The cells were finally resuspended in a total volume of 500 μl at approximately 8×10^6 cells/ml in RPMI-10.
One hundred microliters of the effector cell suspension (8×10^5 cells) were added in triplicate to a 96-well, V-bottom microplate. RPMI-10 was added to the wells designated for spontaneous release and total release of the target cells. One hundred microliters of the target cell suspension (1×10^4 cells/well) were added to the wells for a total volume of 200 μl. The “total release” wells contained 15 μl of 9% Triton X-100, 85 μl of RPMI-10, and 100 μl of target cells.
The 96-well plate was centrifuged at 150×g for four minutes to gently bring the effector and target cells in contact. The plate was then incubated in a humidified 5% CO2 incubator. After four hours, the assay plate was again centrifuged for five minutes at 250×g. One hundred microliters of the supernatant was carefully removed from each well and placed in 12 mm×75 mm glass tubes for counting in a gamma counter. The percent release was calculated using the following formula: […]
Addition of PT stimulates both murine splenocytes and human PBLs to kill tumor cells through lysis. This effect is enhanced in the presence of IL-2. Experimentally, the YAC-1 tumor cell line is routinely used as a target cell for murine NK cells, and the K562 cell line is used as the target for human PBLs. The human prostate cell line DU145 was also included in the test. The data set out in Table 5 show an activation of both murine and human NK cells by PT and IL-2. For these experiments, the drugs, PT and IL-2, were included in the cell suspension and incubated for 48 hours. After this period, the splenocyte suspension was mixed with the YAC-1 target cells that had been loaded with ^51Cr for four hours. The human PBLs were added to a K562 or DU-145 cell suspension that had been similarly loaded. After a 30-minute incubation, the radioactivity in the supernatant fluid was counted as a measure of lysis of the target cells, which reflects NK activity. […]

Substance: Pyrularia thionin (KSCCRNTWARNCYNVCRLPGTISREICAKKCDCKIISGTTCPSDYPK; ends and bridges not checked; also: labeled with 125I) [PT]
- number of T cells in the spleen and thymus ([1]; 10 μg of PT injected intraperitoneally into Swiss Webster mice): increase in the number of T cells in the spleen and thymus
- Splenic cells, Medium Fluor. ([1]; Experiment 1, 7 week male mice, 10 μg PT ip, after three days, none: 13): 24 ± 4.2%
- Splenic cells, High Fluor. ([1]; Experiment 1, 7 week male mice, 10 μg PT ip, after three days, none: 18): 30 ± 5.0%
- Splenic cells, No Fluor. ([1]; Experiment 1, 7 week male mice, 10 μg PT ip, after three days, none: 69): 46 ± 0.4%
- Splenic cells, Medium Fluor. ([1]; Experiment 2, 6 month male mice, 10 μg PT ip, after three days, none: 21): 36 ± 2.1%
- Splenic cells, High Fluor. ([1]; Experiment 2, 6 month male mice, 10 μg PT ip, after three days, none: 29): 32 ± 1.4%
- Splenic cells, No Fluor. ([1]; Experiment 2, 6 month male mice, 10 μg PT ip, after three days, none: 50): 32 ± 1.1%
- Splenic cells, Medium Fluor. ([1]; Experiment 3, 4 month females, 5 μg PT ip, after three days, none: 24): 28 ± 2.2%
- Thymus cells, High Fluor. ([1]; Experiment 3, 4 month females, 5 μg PT ip, after three days, none: 25): 39 ± 2.9%
- Splenic cells, High Fluor. ([1]; Experiment 3, 4 month females, 5 μg PT ip, after three days, none: 26): 31 ± 2.5%
- Thymus cells, Medium Fluor. ([1]; Experiment 3, 4 month females, 5 μg PT ip, after three days, none: 27): 29 ± 1.5%
- Thymus cells, No. Fluor. ([1]; Experiment 3, 4 month females, 5 μg PT ip, after three days, none: 48): 32 ± 4.4%
- Splenic cells, No Fluor. ([1]; Experiment 3, 4 month females, 5 μg PT ip, after three days, none: 50): 41 ± 3.5%
- % Cell Lysis (YAC-1 target cells; 0.01 μg/ml): −0.9 ± 0.5%
- % Cell Lysis (YAC-1 target cells; 0.03 μg/ml): 2.1 ± 0.2%
- % Cell Lysis (YAC-1 target cells; 0.1 μg/ml): 1.8 ± 0.4%
- % Cytotoxicity (YAC-1 target cells; Swiss Webster murine splenocytes, YAC-1 targets, 48 hours with drugs, PT 0.01 μg/ml, IL-2 50 units/ml when present, effector to target ratio 80): 3.4 ± 0.9%
